US10004701B2, “Methods and compositions for treating infection” (UNIVERSITY OF ROCHESTER, priority 2012, dated 2018)
Structures can show the parent of a compound that is named as a salt. Where two headings read alike, the source gives them in different places.

How the values were obtained:
Assay in all cases: AK assay 384-well format, Prestwick library screening
[1] = tested on: A. baumannii strain 98-37-09; format: cell-based, Acinetobacter baumannii; settings: 50 μM final drug concentration; for fold induction at 50 µM: Acinetobacter baumannii, 983709, 3 h
[2] = tested on: E. coli; format: cell-based, Escherichia coli; settings: 50 μM final drug concentration; for fold induction at 50 µM: Escherichia coli, 3 h
[3] = tested on: E. faecium; format: cell-based, Enterococcus faecium; settings: 50 μM final drug concentration; for fold induction at 50 µM: Enterococcus faecium, 3 h
[4] = tested on: P. aeruginosa; format: cell-based, Pseudomonas aeruginosa; settings: 50 μM final drug concentration; for fold induction at 50 µM: Pseudomonas aeruginosa, 3 h
[5] = tested on: S. aureus strain USA300-0114; format: cell-based, Staphylococcus aureus; settings: 50 μM final drug concentration; for fold induction at 50 µM: Staphylococcus aureus, USA300, 3 h
[6] = tested on: K. pneumoniae; format: cell-based, Klebsiella pneumoniae; settings: 50 μM final drug concentration; for fold induction at 50 µM: Klebsiella pneumoniae, 3 h
[7] = tested on: E. cloacae; format: cell-based, Enterobacter cloacae; settings: 50 μM final drug concentration; for fold induction at 50 µM: Enterobacter cloacae, 3 h
[8] = planktonic, cutoff for positive 3-fold increase, read-out: AK-based Prestwick Library Screening Results, A. baumannii (fold increase in extracellular AK activity)
[9] = planktonic, cutoff for positive 3-fold increase, read-out: AK-based Prestwick Library Screening Results, E. coli (fold increase in extracellular AK activity)
[10] = planktonic, cutoff for positive 3-fold increase, read-out: AK-based Prestwick Library Screening Results, E. faecium (fold increase in extracellular AK activity)
[11] = planktonic, cutoff for positive 3-fold increase, read-out: AK-based Prestwick Library Screening Results, P. aeruginosa (fold increase in extracellular AK activity)
[12] = planktonic, cutoff for positive 3-fold increase, read-out: AK-based Prestwick Library Screening Results, S. aureus (fold increase in extracellular AK activity)
[13] = planktonic, cutoff for positive 3-fold increase, read-out: AK-based Prestwick Library Screening Results, K. pneumoniae (fold increase in extracellular AK activity)
[14] = planktonic, cutoff for positive 3-fold increase, read-out: AK-based Prestwick Library Screening Results, E. cloacae (fold increase in extracellular AK activity)
[15] = planktonic, cutoff for positive-scoring molecules 3-fold increase

CCOC(=O)c1ccc(N)cc1 [Benzocaine] showed a fold induction at 50 µM ([1]; cutoff for positive-scoring molecules 3-fold increase, read-out: AK-based Prestwick Library Screening Results, A. baumannii (fold increase in extracellular AK activity)) of 1.2, a fold induction at 50 µM ([2]; cutoff for positive-scoring molecules 3-fold increase, read-out: AK-based Prestwick Library Screening Results, E. coli (fold increase in extracellular AK activity)) of 1.1 and a fold induction at 50 µM ([3]; cutoff for positive-scoring molecules 3-fold increase, read-out: AK-based Prestwick Library Screening Results, E. faecium (fold increase in extracellular AK activity)) of 1. For the same compound, the fold induction at 50 µM ([4]; cutoff for positive-scoring molecules 3-fold increase, read-out: AK-based Prestwick Library Screening Results, P. aeruginosa (fold increase in extracellular AK activity)) was 1.1, the fold induction at 50 µM ([5]; cutoff for positive-scoring molecules 3-fold increase, read-out: AK-based Prestwick Library Screening Results, S. aureus (fold increase in extracellular AK activity)) was 1.2 and the fold induction at 50 µM ([6]; cutoff for positive-scoring molecules 3-fold increase, read-out: AK-based Prestwick Library Screening Results, K. pneumoniae (fold increase in extracellular AK activity)) was 0.9. For the same compound, the fold induction at 50 µM ([7]; cutoff for positive-scoring molecules 3-fold increase, read-out: AK-based Prestwick Library Screening Results, E. cloacae (fold increase in extracellular AK activity)) was 1.6.
In the case of CCCC1O[C@@H]2C[C@H]3[C@@H]4CCC5=CC(=O)C=C[C@]5(C)[C@H]4[C@@H](O)C[C@]3(C)[C@]2(C(=O)CO)O1 (stereo partly drawn) [Budesonide], the fold induction at 50 µM ([1]; planktonic A. baumannii, cutoff for positive-scoring molecules 3-fold increase, read-out: AK-based Prestwick Library Screening Results, A. baumannii (increase in extracellular AK activity)) is reported as 0.9, the fold induction at 50 µM ([2]; planktonic E. coli, cutoff for positive-scoring molecules 3-fold increase, read-out: AK-based Prestwick Library Screening Results, E. coli (increase in extracellular AK activity)) is reported as 0.9 and the fold induction at 50 µM ([3]; planktonic E. faecium, cutoff for positive-scoring molecules 3-fold increase, read-out: AK-based Prestwick Library Screening Results, E. faecium (increase in extracellular AK activity)) is reported as 0.9. It also gave a fold induction at 50 µM ([4]; planktonic P. aeruginosa, cutoff for positive-scoring molecules 3-fold increase, read-out: AK-based Prestwick Library Screening Results, P. aeruginosa (increase in extracellular AK activity)) of 0.9, a fold induction at 50 µM ([5]; planktonic S. aureus, cutoff for positive-scoring molecules 3-fold increase, read-out: AK-based Prestwick Library Screening Results, S. aureus (increase in extracellular AK activity)) of 0.6 and a fold induction at 50 µM ([6]; planktonic K. pneumoniae, cutoff for positive-scoring molecules 3-fold increase, read-out: AK-based Prestwick Library Screening Results, K. pneumoniae (increase in extracellular AK activity)) of 0.7. The fold induction at 50 µM ([7]; planktonic E. cloacae, cutoff for positive-scoring molecules 3-fold increase, read-out: AK-based Prestwick Library Screening Results, E. cloacae (increase in extracellular AK activity)) was 1.4.
With CCCCC(CC)CN1CN(CC(CC)CCCC)CC(C)(N)C1 (stereo not drawn) [Hexetidine] the fold induction at 50 µM [1, 8] was 3, the fold induction at 50 µM [2, 9] was 1.5 and the fold induction at 50 µM [3, 10] was 1.1. The fold induction at 50 µM [4, 11] was 1.1, the fold induction at 50 µM [5, 12] was 1.2 and the fold induction at 50 µM [6, 13] was 1.4. For the same compound, the fold induction at 50 µM [7, 14] was 1.6.
Work on CN(C)CCN(Cc1ccc(Cl)cc1)c1ccccn1 [Chloropyramine hydrochloride] yielded a fold induction at 50 µM ([1]; planktonic, cutoff for positive-scoring molecules 3-fold increase, read-out: AK-based Prestwick Library Screening Results, A. baumannii (fold increase in extracellular AK activity)) of 0.6, a fold induction at 50 µM ([2]; planktonic, cutoff for positive-scoring molecules 3-fold increase, read-out: AK-based Prestwick Library Screening Results, E. coli (fold increase in extracellular AK activity)) of 0.7 and a fold induction at 50 µM ([3]; planktonic, cutoff for positive-scoring molecules 3-fold increase, read-out: AK-based Prestwick Library Screening Results, E. faecium (fold increase in extracellular AK activity)) of 0.9. The fold induction at 50 µM ([4]; planktonic, cutoff for positive-scoring molecules 3-fold increase, read-out: AK-based Prestwick Library Screening Results, P. aeruginosa (fold increase in extracellular AK activity)) was 0.5, the fold induction at 50 µM ([5]; planktonic, cutoff for positive-scoring molecules 3-fold increase, read-out: AK-based Prestwick Library Screening Results, S. aureus (fold increase in extracellular AK activity)) was 0.5 and the fold induction at 50 µM ([6]; planktonic, cutoff for positive-scoring molecules 3-fold increase, read-out: AK-based Prestwick Library Screening Results, K. pneumoniae (fold increase in extracellular AK activity)) was 0.6. It also gave a fold induction at 50 µM ([7]; planktonic, cutoff for positive-scoring molecules 3-fold increase, read-out: AK-based Prestwick Library Screening Results, E. cloacae (fold increase in extracellular AK activity)) of 0.6.
CCN1CCCC1CNC(=O)c1cc(S(N)(=O)=O)ccc1OC (stereo not drawn) [Sulpiride] gave a fold induction at 50 µM ([1]; planktonic A. baumannii, 384-well, […], read-out: AK-based Prestwick Library Screening Results: A. baumannii (increase in extracellular AK activity)) of 1, a fold induction at 50 µM ([2]; planktonic E. coli, 384-well, […], read-out: AK-based Prestwick Library Screening Results: E. coli (increase in extracellular AK activity)) of 1 and a fold induction at 50 µM ([3]; planktonic E. faecium, 384-well, […], read-out: AK-based Prestwick Library Screening Results: E. faecium (increase in extracellular AK activity)) of 1. The fold induction at 50 µM ([4]; planktonic P. aeruginosa, 384-well, […], read-out: AK-based Prestwick Library Screening Results: P. aeruginosa (increase in extracellular AK activity)) was 1.1, the fold induction at 50 µM ([5]; planktonic S. aureus, 384-well, […], read-out: AK-based Prestwick Library Screening Results: S. aureus (increase in extracellular AK activity)) was 1.1 and the fold induction at 50 µM ([6]; planktonic K. pneumoniae, 384-well, […], read-out: AK-based Prestwick Library Screening Results: K. pneumoniae (increase in extracellular AK activity)) was 1. It also gave a fold induction at 50 µM ([7]; planktonic E. cloacae, 384-well, […], read-out: AK-based Prestwick Library Screening Results: E. cloacae (increase in extracellular AK activity)) of 1.6.
CC(N/C(=N\C#N)Nc1ccncc1)C(C)(C)C (stereo not drawn) [Pinacidil] gave a fold induction at 50 µM ([1]; 384-well format, cutoff for positive-scoring molecules 3-fold increase, read-out: AK-based Prestwick Library Screening Results, A. baumannii (increase in extracellular AK activity)) of 0.5, a fold induction at 50 µM ([2]; 384-well format, cutoff for positive-scoring molecules 3-fold increase, read-out: AK-based Prestwick Library Screening Results, E. coli (increase in extracellular AK activity)) of 0.5 and a fold induction at 50 µM ([3]; 384-well format, cutoff for positive-scoring molecules 3-fold increase, read-out: AK-based Prestwick Library Screening Results, E. faecium (increase in extracellular AK activity)) of 0.9. It also gave a fold induction at 50 µM ([4]; 384-well format, cutoff for positive-scoring molecules 3-fold increase, read-out: AK-based Prestwick Library Screening Results, P. aeruginosa (increase in extracellular AK activity)) of 0.5, a fold induction at 50 µM ([5]; 384-well format, cutoff for positive-scoring molecules 3-fold increase, read-out: AK-based Prestwick Library Screening Results, S. aureus (increase in extracellular AK activity)) of 0.5 and a fold induction at 50 µM ([6]; 384-well format, cutoff for positive-scoring molecules 3-fold increase, read-out: AK-based Prestwick Library Screening Results, K. pneumoniae (increase in extracellular AK activity)) of 0.5. It also gave a fold induction at 50 µM ([7]; 384-well format, cutoff for positive-scoring molecules 3-fold increase, read-out: AK-based Prestwick Library Screening Results, E. cloacae (increase in extracellular AK activity)) of 0.6.
For Cl.OC1CCCCC1N1CCC(c2ccccc2)CC1 (stereo not drawn) [L(−)-vesamicol hydrochloride], the “AK-based Prestwick Library Screening Results, A. baumannii (fold increase in extracellular AK activity)” value [1, 15] was 0.8, the “AK-based Prestwick Library Screening Results, E. coli (fold increase in extracellular AK activity)” value [2, 15] was 0.8 and the “AK-based Prestwick Library Screening Results, E. faecium (fold increase in extracellular AK activity)” value [3, 15] was 0.9. For the same compound, the “AK-based Prestwick Library Screening Results, P. aeruginosa (fold increase in extracellular AK activity)” value [4, 15] was 0.8, the “AK-based Prestwick Library Screening Results, S. aureus (fold increase in extracellular AK activity)” value [5, 15] was 0.8 and the “AK-based Prestwick Library Screening Results, K. pneumoniae (fold increase in extracellular AK activity)” value [6, 15] was 0.7. The “AK-based Prestwick Library Screening Results, E. cloacae (fold increase in extracellular AK activity)” value [7, 15] was 1.2.
(S)-propranolol hydrochloride was tested, and the “AK-based Prestwick library screening result, A. baumannii (fold increase in extracellular AK activity)” value ([1]; planktonic A. baumannii, positive cutoff 3-fold increase) was 1.0, the “AK-based Prestwick library screening result, E. coli (fold increase in extracellular AK activity)” value ([2]; planktonic E. coli, positive cutoff 3-fold increase) was 1.2 and the “AK-based Prestwick library screening result, E. faecium (fold increase in extracellular AK activity)” value ([3]; planktonic E. faecium, positive cutoff 3-fold increase) was 1.1. For the same compound, the “AK-based Prestwick library screening result, P. aeruginosa (fold increase in extracellular AK activity)” value ([4]; planktonic P. aeruginosa, positive cutoff 3-fold increase) was 1.1, the “AK-based Prestwick library screening result, S. aureus (fold increase in extracellular AK activity)” value ([5]; planktonic S. aureus, positive cutoff 3-fold increase) was 1.0 and the “AK-based Prestwick library screening result, K. pneumoniae (fold increase in extracellular AK activity)” value ([6]; planktonic K. pneumoniae, positive cutoff 3-fold increase) was 1.0. For the same compound, the “AK-based Prestwick library screening result, E. cloacae (fold increase in extracellular AK activity)” value ([7]; planktonic E. cloacae, positive cutoff 3-fold increase) was 1.6.
With Cc1cc2nc3c(=O)[nH]c(=O)nc-3n(C[C@H](O)[C@H](O)[C@H](O)CO)c2cc1C [Riboflavine] the fold induction at 50 µM [1, 8] was 1.2, the fold induction at 50 µM [2, 9] was 1.1 and the fold induction at 50 µM [3, 10] was 1. For the same compound, the fold induction at 50 µM [4, 11] was 1.2, the fold induction at 50 µM [5, 12] was 0.9 and the fold induction at 50 µM [6, 13] was 1.6. It also gave a fold induction at 50 µM [7, 14] of 1.5.
